From PubChem BioAssay AID2060614 (Molecular Pharmacology Branch, DTP, NCI, 2025)
Several values for one entry are separate records, joined by “and”; a condition that tells them apart may be missing. Identical values can stand only once. Each block holds one compound with its values, some of them ahead of it.

System: 598228-144-R-J1-PDC complex spheroids, viability
Test: Anticancer human tumor 598228-144-R-J1-PDC patient-derived serous endometrial adenocarcinoma cell line growth inhibition [CLK]
Details: for viability, T/C: stronger effect = lower value
Description: A high-throughput screen of multi-cell type tumor spheroids was designed to identify active combinations of […] and targeted small molecules. Complex spheroids include a stromal component modeled by human endothelial cells (HUVEC) and fibroblasts modeled by human mesenchymal stem cells (MSCs). The concentration ranges selected for each drug and investigational agent were based upon clinically achievable concentrations if the clinical Cmax of the agent was known.
Compounds. The drugs and investigational agents: cirtuvivint (SM08502; NSC835563), CC-671 (NSC850746), vemurafenib (NSC761431), tapotoclax (NSC804041), sotorasib (NSC818433), adagrasib (NSC831453), MRTX-1133 (NSC836407), BAY2416964 (NSC825713), copanlisib (NSC816437), inavolisib (NSC800729), abemaciclib (NSC768073), osimertinib (NSC779217), entinostat (NSC756642), eltanexor (KPT-8602, NSC794443), venetoclax (NSC766270), ceralasertib (NSC777638), bortezomib (NSC756655), olaparib (NSC753686), talazoparib (NSC767125), alisertib (NSC759677), peposertib (NSC802822), gemcitabine (NSC613327), 5-fluorouracil (NSC19893), SN-38 (NSC673596), oxaliplatin (NSC266046), paclitaxel (NSC125973), and doxorubicin (NSC123127), were obtained from the National Cancer Institute (NCI) Developmental Therapeutics Program Chemical Repository. The FDA-approved anticancer drug set is available from the Developmental Therapeutics Program at https://dtp.cancer.gov/organization/dscb/obtaining/available plates.htm. […] The stock solutions were prepared in dimethyl sulfoxide (DMSO, Sigma-Aldrich, St. Louis, MO, cat. D2650), except for the platinum complexes which were prepared in saline (Quality Biological, Gaithersburg, MD, cat. 114-055-101), at 800-fold the tested concentration and stored at -70 degrees C prior to their use. All drugs and investigational agents were tested over a range starting from a high concentration at or near the clinical Cmax and decreasing in half-log increments. If the clinical Cmax for an agent had not been determined, the highest concentration tested was 10 microM.
Cell Culture. All cells were maintained in an incubator at 37 degrees C and 5% CO2 with 95% humidity. The PDC lines were cultured according to standard operating procedures established by the NCI PDMR. Briefly, all PDCs were thawed and cultured in Matrigel-coated flasks prepared with a working solution of 1X Ham's F-12 nutrient mix, without supplementation (Invitrogen, Waltham, MA, cat. 11765054), 100 U/mL penicillin-streptomycin (Invitrogen, cat. 15140122), and 2.5% Matrigel (Corning Inc., Corning, NY, cat. 354248) for the first three passages. The 947758-054-R-J2-PDC line was cultured in 6B/Colon 1A media, which includes advanced DMEM/F-12 (Thermo Fisher Scientific, cat. 12634028), 10 mM HEPES (Thermo Fisher Scientific, cat. 15630080), 1X GlutaMAX supplement (Thermo Fisher Scientific, cat. 35050061), 0.1 mg/mL primocin (InvivoGen, cat. ant-pm-2), 10% defined fetal bovine serum, heat inactivated (HyClone Laboratories Inc., cat. SH30070.03HI), 1.25 mM N-Acetyl-L-cysteine (Sigma-Aldrich, cat. A9165), 10 mM nicotinamide (Sigma-Aldrich, cat. N0636), 1X B-27 supplement (Thermo Fisher Scientific, cat. 17504044), 1X N-2 supplement (Thermo Fisher Scientific, cat. 17502048), and 10 microM Y-27632 dihydrochloride (Tocris Bioscience, cat. 1254). The 876862-298-R-J1-PDC was cultured in 6E media, which includes all 6B/Colon 1A media components plus 50% L-WRN conditioned media (ATCC, cat. CRL-3276), 50 ng/mL recombinant human EGF recombinant protein (hEGF; Thermo Fisher Scientific, cat. PHG0311), 10 ng/mL recombinant human fibroblast growth factor 10 (hGFG-10; PeproTech, cat. 100-26), 1 ng/mL recombinant human fibroblast growth factor 2 (hFGF-2; PeproTech, cat. 100-18B), and 1 µM prostaglandin E2 (PGE2; Tocris, cat. 2296). The 227483-062-R1-J1-PDC line was cultured in Panc media, containing all 6E components except hFGF-2, with the addition of 500 nM SB-431542 (Selleckchem, cat. S1067) and 10 nM gastrin (Tocris, cat. 3006). […]

[1] = curve of first compound, second compound 0.0316 µM
[2] = curve of first compound, second compound 0.1 µM
[3] = curve of first compound, second compound 0.316 µM
[4] = curve of first compound, second compound 1 µM
[5] = curve of first compound, second compound 3.16 µM
[6] = curve of first compound, second compound 10 µM
[7] = second compound 0.0316 µM, first compound 0.0316 µM
[8] = second compound 0.0316 µM, first compound 0.1 µM
[9] = second compound 0.0316 µM, first compound 0.316 µM
[10] = second compound 0.0316 µM, first compound 1 µM
[11] = second compound 0.0316 µM, first compound 3.16 µM
[12] = second compound 0.0316 µM, first compound 10 µM
[13] = second compound 0.1 µM, first compound 0.0316 µM
[14] = second compound 0.1 µM, first compound 0.1 µM
[15] = second compound 0.1 µM, first compound 0.316 µM
[16] = second compound 0.1 µM, first compound 1 µM
[17] = second compound 0.1 µM, first compound 3.16 µM
[18] = second compound 0.1 µM, first compound 10 µM
[19] = second compound 0.316 µM, first compound 0.0316 µM
[20] = second compound 0.316 µM, first compound 0.1 µM
[21] = second compound 0.316 µM, first compound 0.316 µM
[22] = second compound 0.316 µM, first compound 1 µM
[23] = second compound 0.316 µM, first compound 3.16 µM
[24] = second compound 0.316 µM, first compound 10 µM
[25] = second compound 1 µM, first compound 0.0316 µM
[26] = second compound 1 µM, first compound 0.1 µM
[27] = second compound 1 µM, first compound 0.316 µM
[28] = second compound 1 µM, first compound 1 µM
[29] = second compound 1 µM, first compound 3.16 µM
[30] = second compound 1 µM, first compound 10 µM
[31] = second compound 3.16 µM, first compound 0.0316 µM
[32] = second compound 3.16 µM, first compound 0.1 µM
[33] = second compound 3.16 µM, first compound 0.316 µM
[34] = second compound 3.16 µM, first compound 1 µM
[35] = second compound 3.16 µM, first compound 3.16 µM
[36] = second compound 3.16 µM, first compound 10 µM
[37] = second compound 10 µM, first compound 0.0316 µM
[38] = second compound 10 µM, first compound 0.1 µM
[39] = second compound 10 µM, first compound 0.316 µM
[40] = second compound 10 µM, first compound 1 µM
[41] = second compound 10 µM, first compound 3.16 µM
[42] = second compound 10 µM, first compound 10 µM
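Also: spheroids exposed to compounds for seven days before readout.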
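For viability, T/C in this document: 100% = DMSO vehicle control wells.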

IC50 (compound alone, run of 09/18/2023): 216 nM [middle of 10 runs]
Structure (SMILES): CN1CCN(c2cc(C(=O)Nc3cc4cc(-c5cnn(C)c5)ccc4cn3)ccn2)CC1
viability, T/C (compound 0.316 µM): 17.4% [middle of 11 runs]
viability, T/C (compound 1 µM): 3.28% [middle of 12 runs]
viability, T/C (compound 3.16 µM): 2.39% [middle of 11 runs]
viability, T/C (compound 10 µM): 1% [middle of 11 runs]

IC50 (curve of compound): 3550 nM and 4190 nM
Structure (SMILES): COc1ccc([C@@H](O)c2cc(-c3ncnc4cc(N5CCOCC5)ccc34)c(F)cc2Cl)nn1
viability, T/C (compound 0.0316 µM): 96.2% and 103%
viability, T/C (compound 0.1 µM): 93.5% and 88.3%
viability, T/C (compound 0.316 µM): 83.5% and 94.8%
viability, T/C (compound 1 µM): 63.7% and 76.9%
viability, T/C (compound 3.16 µM): 54.9% and 55.7%
viability, T/C (compound 10 µM): 34.8% and 31.7%

IC50 (curve of compound): 266 nM and 257 nM
Structure (SMILES): COc1cccc2c1C(=O)c1c(O)c3c(c(O)c1C2=O)CC(O)(C(=O)CO)CC3OC1CC(N)C(O)C(C)O1 (stereo not given)
viability, T/C (compound 0.0316 µM): 75.6% and 69%
viability, T/C (compound 0.1 µM): 76.5% and 74%
viability, T/C (compound 0.316 µM): 43.8% and 43.9%
viability, T/C (compound 1 µM): 14% and 12.3%
viability, T/C (compound 3.16 µM): 0.38% and 0.72%
viability, T/C (compound 10 µM): 0.37% and 0.77%

Structure (SMILES): C=CC(=O)N1CCN(c2nc(=O)n(-c3c(C)ccnc3C(C)C)c3nc(-c4c(O)cccc4F)c(F)cc23)C(C)C1 (stereo not given) + CN1CCN(c2cc(C(=O)Nc3cc4cc(-c5cnn(C)c5)ccc4cn3)ccn2)CC1
IC50 [1]: > 10000 nM
IC50 [2]: > 10000 nM
IC50 [3]: < 31.6 nM
IC50 [4]: < 31.6 nM
IC50 [5]: < 31.6 nM
IC50 [6]: < 31.6 nM
viability, T/C [7]: 128%
viability, T/C [8]: 130%
viability, T/C [9]: 121%
viability, T/C [10]: 138%
viability, T/C [11]: 159%
viability, T/C [12]: 128%
viability, T/C [13]: 128%
viability, T/C [14]: 122%
viability, T/C [15]: 132%
viability, T/C [16]: 160%
viability, T/C [17]: 162%
viability, T/C [18]: 121%
viability, T/C [19]: 20.6%
viability, T/C [20]: 21.9%
viability, T/C [21]: 20.1%
viability, T/C [22]: 24.2%
viability, T/C [23]: 25.9%
viability, T/C [24]: 18.4%
viability, T/C [25]: 1.67%
viability, T/C [26]: 1.68%
viability, T/C [27]: 2.05%
viability, T/C [28]: 2.47%
viability, T/C [29]: 2.38%
viability, T/C [30]: 1.47%
viability, T/C [31]: 1.63%
viability, T/C [32]: 3.15%
viability, T/C [33]: 2.36%
viability, T/C [34]: 2.16%
viability, T/C [35]: 3.18%
viability, T/C [36]: 4.16%
viability, T/C [37]: 0.96%
viability, T/C [38]: 1.09%
viability, T/C [39]: 2.11%
viability, T/C [40]: 1.48%
viability, T/C [41]: 4.19%
viability, T/C [42]: 1.94%

Structure (SMILES): CCCS(=O)(=O)Nc1ccc(F)c(C(=O)c2c[nH]c3ncc(-c4ccc(Cl)cc4)cc23)c1F + CN1CCN(c2cc(C(=O)Nc3cc4cc(-c5cnn(C)c5)ccc4cn3)ccn2)CC1
IC50 [1]: > 10000 nM
IC50 [2]: > 10000 nM
IC50 [3]: < 31.6 nM
IC50 [4]: < 31.6 nM
IC50 [5]: < 31.6 nM
IC50 [6]: < 31.6 nM
viability, T/C [7]: 114%
viability, T/C [8]: 136%
viability, T/C [9]: 119%
viability, T/C [10]: 145%
viability, T/C [11]: 115%
viability, T/C [12]: 71%
viability, T/C [13]: 132%
viability, T/C [14]: 144%
viability, T/C [15]: 111%
viability, T/C [16]: 131%
viability, T/C [17]: 112%
viability, T/C [18]: 72.5%
viability, T/C [19]: 20.5%
viability, T/C [20]: 23.8%
viability, T/C [21]: 19.9%
viability, T/C [22]: 15.7%
viability, T/C [23]: 17.3%
viability, T/C [24]: 15.5%
viability, T/C [25]: 1.62%
viability, T/C [26]: 1.8%
viability, T/C [27]: 2.03%
viability, T/C [28]: 1.5%
viability, T/C [29]: 2.94%
viability, T/C [30]: 4.26%
viability, T/C [31]: 2.08%
viability, T/C [32]: 6.53%
viability, T/C [33]: 1.71%
viability, T/C [34]: 2.24%
viability, T/C [35]: 5.08%
viability, T/C [36]: 7.6%
viability, T/C [37]: 1.08%
viability, T/C [38]: 0.79%
viability, T/C [39]: 1.22%
viability, T/C [40]: 1.42%
viability, T/C [41]: 3.13%
viability, T/C [42]: 6.03%

Structure (SMILES): COC1C=CCC(C)C(C)S(=O)(=O)NC(=O)c2ccc3c(c2)N(CC2CCC21)CC1(CCCc2cc(Cl)ccc21)CO3 (stereo not given) + CN1CCN(c2cc(C(=O)Nc3cc4cc(-c5cnn(C)c5)ccc4cn3)ccn2)CC1
IC50 [1]: 4710 nM
IC50 [2]: 5350 nM
IC50 [3]: < 31.6 nM
IC50 [4]: < 31.6 nM
IC50 [5]: < 31.6 nM
IC50 [6]: < 31.6 nM
viability, T/C [7]: 128%
viability, T/C [8]: 107%
viability, T/C [9]: 85.1%
viability, T/C [10]: 75%
viability, T/C [11]: 69.2%
viability, T/C [12]: 29.5%
viability, T/C [13]: 122%
viability, T/C [14]: 111%
viability, T/C [15]: 86%
viability, T/C [16]: 76.9%
viability, T/C [17]: 65.5%
viability, T/C [18]: 36.4%
viability, T/C [19]: 15.7%
viability, T/C [20]: 18.8%
viability, T/C [21]: 16.8%
viability, T/C [22]: 16.6%
viability, T/C [23]: 20.5%
viability, T/C [24]: 18.9%
viability, T/C [25]: 1.74%
viability, T/C [26]: 1.81%
viability, T/C [27]: 3.02%
viability, T/C [28]: 1.14%
viability, T/C [29]: 1.71%
viability, T/C [30]: 4.93%
viability, T/C [31]: 1.85%
viability, T/C [32]: 3.92%
viability, T/C [33]: 1.47%
viability, T/C [34]: 1.24%
viability, T/C [35]: 2.51%
viability, T/C [36]: 3.08%
viability, T/C [37]: 0.94%
viability, T/C [38]: 0.82%
viability, T/C [39]: 0.72%
viability, T/C [40]: 0.85%
viability, T/C [41]: 2.37%
viability, T/C [42]: 3.73%
